Data on 30 molecules can be found in US20250026743A1, “HETEROARYL-LINKED ANALOGS AS MGLU5 NEGATIVE ALLOSTERIC MODULATORS AND METHODS OF MAKING AND USING THE SAME” (Vanderbilt University, priority 2021, published 2025).

Where two headings read alike, the source gives them in different places.

For this experiment, the target named is T1, hmGlu5 (Homo sapiens, UniProt P41594).
T1 construct: expressed in transfected cells; host or cells: HEK 293A
The experiment can be described thus: mGlu5 Ca2+ flux assay in HEK 293A cells (negative allosteric modulation of glutamate EC80 response). In kind it is cell-based. The conditions noted are these: for remaining activity at 30 µM: HEK293-A, read-out: hmGlu5 NAM Emin (%); for IC50: HEK 293A cells, Ca2+ flux, glutamate EC80, >10,000 = decrease without plateau, read-out: hmGlu5 NAM IC50. The essentials: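 HEK 293A cells stably expressing rat or human mGlu5, Fluo-4 AM loaded; compound added 2.3 min before glutamate EC20, then EC80; Ca2+ fluorescence peak amplitudes (F/F0) normalised to glutamate max. IC50 from 4-parameter logistic fit, 10-point 1:3 curves, top 30 μM; partial NAMs plateau above 10% Glu Max.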
For orientation: Calcium assays in cells follow changes in intracellular calcium, usually with a dye or a luminescent sensor.

T1 sequence (P41594 21-1212): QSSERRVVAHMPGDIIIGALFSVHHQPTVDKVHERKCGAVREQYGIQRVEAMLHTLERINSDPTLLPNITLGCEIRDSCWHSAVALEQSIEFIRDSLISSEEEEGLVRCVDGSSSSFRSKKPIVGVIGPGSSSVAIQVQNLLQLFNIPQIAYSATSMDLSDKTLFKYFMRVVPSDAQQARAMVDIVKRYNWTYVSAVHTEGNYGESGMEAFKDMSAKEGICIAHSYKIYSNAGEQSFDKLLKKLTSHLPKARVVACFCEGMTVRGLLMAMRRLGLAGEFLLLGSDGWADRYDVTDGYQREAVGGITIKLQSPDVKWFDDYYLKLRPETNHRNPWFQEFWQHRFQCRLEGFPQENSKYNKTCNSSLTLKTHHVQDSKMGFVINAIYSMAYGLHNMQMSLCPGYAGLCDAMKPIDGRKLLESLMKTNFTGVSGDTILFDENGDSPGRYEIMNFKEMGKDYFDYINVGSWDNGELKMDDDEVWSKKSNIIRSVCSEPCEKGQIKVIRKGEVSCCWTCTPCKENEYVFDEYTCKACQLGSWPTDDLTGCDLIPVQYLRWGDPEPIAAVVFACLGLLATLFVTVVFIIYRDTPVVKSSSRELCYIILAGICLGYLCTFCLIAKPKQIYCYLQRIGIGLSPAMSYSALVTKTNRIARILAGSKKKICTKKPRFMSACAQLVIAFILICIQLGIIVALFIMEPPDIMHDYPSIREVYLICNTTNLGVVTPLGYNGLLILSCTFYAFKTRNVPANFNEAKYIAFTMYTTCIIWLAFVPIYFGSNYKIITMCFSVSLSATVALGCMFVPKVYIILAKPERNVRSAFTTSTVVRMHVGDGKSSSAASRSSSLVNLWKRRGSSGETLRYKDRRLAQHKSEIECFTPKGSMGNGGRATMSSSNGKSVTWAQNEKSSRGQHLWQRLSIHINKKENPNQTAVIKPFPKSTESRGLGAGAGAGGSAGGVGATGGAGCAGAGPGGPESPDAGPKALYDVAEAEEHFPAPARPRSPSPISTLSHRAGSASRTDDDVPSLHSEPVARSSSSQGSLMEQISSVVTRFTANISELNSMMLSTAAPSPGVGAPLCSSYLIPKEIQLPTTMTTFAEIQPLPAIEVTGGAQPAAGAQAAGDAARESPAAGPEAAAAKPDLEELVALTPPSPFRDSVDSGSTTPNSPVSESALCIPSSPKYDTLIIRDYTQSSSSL

For orientation: IC50 means the concentration that inhibits the measured activity by half. In the case of `Cc1csc(-c2nc(-c3cc(-c4cnccc4C)c(F)c(C)n3)no2)n1` [Compound 15, 3-(5′-fluoro-4,6′-dimethyl-[3,4′-bipyridin]-2′-yl)-5-(4-methylthiazol-2-yl)-1,2,4-oxadiazole], the IC50 turned out to be 97 nM. Besides, the remaining activity at 30 µM (% Glu max at 30 μM) is 2%.

Turning to `CCn1cc(-c2cc(-c3noc(-c4nc(C)cs4)n3)nc(C)c2F)cn1` [Compound 17, 3-(4-(1-ethyl-1H-pyrazol-4-yl)-5-fluoro-6-methylpyridin-2-yl)-5-(4-methylthiazol-2-yl)-1,2,4-oxadiazole], the IC50 is above 10000 nM. Moreover, the remaining activity at 30 µM (% Glu max at 30 μM) was determined as 25%.

For `Cc1nc(-c2nnc(-c3ccc(F)cn3)o2)cc(-c2cnsc2)c1F` [Compound 110, 2-(5-fluoro-4-(isothiazol-4-yl)-6-methylpyridin-2-yl)-5-(5-fluoropyridin-2-yl)-1,3,4-oxadiazole], the IC50 was found to be 185 nM. Besides, the remaining activity at 30 µM (% Glu max at 30 μM) turned out to be 2%.

With `COCCOc1c(-c2cncc(F)c2)cc(-c2noc(-c3ccc(F)cn3)n2)nc1C` [Compound 54, 3-(5-fluoro-5′-(2-methoxyethoxy)-6′-methyl-[3,4′-bipyridin]-2′-yl)-5-(5-fluoropyridin-2-yl)-1,2,4-oxadiazole], the IC50 was 562 nM. Under “% Glu max at 30 μM”, the remaining activity at 30 µM turned out to be 3%.

For the molecule `Cc1ccncc1-c1cc(-c2noc(-c3ccc(F)cn3)n2)nc(C)c1F` [Compound 5, 3-(5′-fluoro-4,6′-dimethyl-[3,4′-bipyridin]-2′-yl)-5-(5-fluoropyridin-2-yl)-1,2,4-oxadiazole], the IC50 worked out at 98 nM. In addition, the remaining activity at 30 µM (% Glu max at 30 μM) was 3%.

As to `Cc1ccncc1-c1cc(-c2noc(C(F)c3ccccc3)n2)nc(C)c1F` (stereo not drawn) [Compound 89, 5-(fluoro(phenyl)methyl)-3-(5′-fluoro-4,6′-dimethyl-[3,4′-bipyridin]-2′-yl)-1,2,4-oxadiazole], the IC50 stood at 3600 nM. In addition, where the note is “% Glu max at 30 μM”, the remaining activity at 30 µM is 3%.

Take `Cc1ccncc1-c1cc(-c2nc(-c3ccc(F)cn3)no2)nc(C)c1F` [Compound 8, 5-(5′-fluoro-4,6′-dimethyl-[3,4′-bipyridin]-2′-yl)-3-(5-fluoropyridin-2-yl)-1,2,4-oxadiazole]: the IC50 came out at 124 nM. Further, where the note is “% Glu max at 30 μM”, the remaining activity at 30 µM was found to be 2%.

As for `Cc1nc(-c2n[nH]c(-c3ccccc3F)n2)cc(-c2cncc(F)c2)c1F` [Compound 98, 3′,5-difluoro-6′-(5-(2-fluorophenyl)-1H-1,2,4-triazol-3-yl)-2′-methyl-3,4′-bipyridine], the half-inhibitory concentration (IC50) stood at 82 nM. The remaining activity at 30 µM (% Glu max at 30 μM) came to 1%.

For the molecule `Cc1ccn(Cc2nc(-c3cc(-c4cnccc4C)c(F)c(C)n3)no2)n1` [Compound 65, 3-(5′-fluoro-4,6′-dimethyl-[3,4′-bipyridin]-2′-yl)-5-((3-methyl-1H-pyrazol-1-yl)methyl)-1,2,4-oxadiazole], the IC50 is above 10000 nM. For the same molecule, where the note is “% Glu max at 30 μM”, the remaining activity at 30 µM was 36%.

Consider `COc1cc(-c2cc(-c3nnc(-c4ccc(F)cn4)o3)nc(C)c2F)ccn1` [Compound 108, 2-(5-fluoro-2′-methoxy-6-methyl-[4,4′-bipyridin]-2-yl)-5-(5-fluoropyridin-2-yl)-1,3,4-oxadiazole], for which the concentration for half-maximal inhibition (IC50) was found to be 94 nM. Also, the remaining activity at 30 µM (% Glu max at 30 μM) was found to be 1%.

As for `Cc1ccncc1-c1cc(-c2noc(-c3cccc(C#N)c3)n2)nc(C)c1F` [Compound 24, 3-(3-(5′-fluoro-4,6′-dimethyl-[3,4′-bipyridin]-2′-yl)-1,2,4-oxadiazol-5-yl)benzonitrile], the IC50 came to 85 nM. Further, the remaining activity at 30 µM (% Glu max at 30 μM) was determined as 2%.

On to `COc1cc(C#N)cc(-c2cc(-c3nnc(-c4ccc(F)cn4)o3)nc(C)c2F)c1` [Compound 109, 3-(3-fluoro-6-(5-(5-fluoropyridin-2-yl)-1,3,4-oxadiazol-2-yl)-2-methylpyridin-4-yl)-5-methoxybenzonitrile], for which the IC50 is 66 nM. Further, where the note is “% Glu max at 30 μM”, the remaining activity at 30 µM is 2%.

Take `Cc1ccc(-c2cc(-c3nnc(-c4ccc(F)cn4)o3)nc(C)c2F)c(C)n1` [Compound 111, 2-(5′-fluoro-2,6,6′-trimethyl-[3,4′-bipyridin]-2′-yl)-5-(5-fluoropyridin-2-yl)-1,3,4-oxadiazole]: the IC50 is 1530 nM. For the same molecule, the remaining activity at 30 µM (% Glu max at 30 μM) came out at 2%.

With `Cc1nc(-c2nc(-c3ccc(F)cn3)no2)cc(-c2cncc(F)c2)c1F` [Compound 59, 5-(5,5′-difluoro-6′-methyl-[3,4′-bipyridin]-2′-yl)-3-(5-fluoropyridin-2-yl)-1,2,4-oxadiazole], the concentration for half-maximal inhibition (IC50) came to 51 nM. The remaining activity at 30 µM (% Glu max at 30 μM) worked out at 4%.

Take `COc1c(-c2cncc(F)c2)cc(-c2n[nH]c(-c3ccc(F)cc3)n2)nc1C` [Compound 102, 5-fluoro-6′-(5-(4-fluorophenyl)-1H-1,2,4-triazol-3-yl)-3′-methoxy-2′-methyl-3,4′-bipyridine]: the IC50 was determined as 663 nM. Besides, under “% Glu max at 30 μM”, the remaining activity at 30 µM is 2%.

For `Cc1ccncc1-c1cc(-c2noc(C(C)c3ccccc3)n2)nc(C)c1F` (stereo not drawn) [Compound 95, 3-(5′-fluoro-4,6′-dimethyl-[3,4′-bipyridin]-2′-yl)-5-(1-phenylethyl)-1,2,4-oxadiazole], the IC50 was above 10000 nM. Besides, the remaining activity at 30 µM (% Glu max at 30 μM) was determined as 27%.

With `Cc1nc(-c2noc(-c3ccc(F)cn3)n2)cc(-c2ccc(C(F)(F)F)nc2)c1F` [Compound 29, 3-(5′-fluoro-6′-methyl-6-(trifluoromethyl)-[3,4′-bipyridin]-2′-yl)-5-(5-fluoropyridin-2-yl)-1,2,4-oxadiazole], the IC50 turned out to be 1720 nM. Besides, for the setting “% Glu max at 30 μM”, the remaining activity at 30 µM came to 37%.

As to `Cc1ccncc1-c1cc(-c2nnc(-c3ccc(F)cn3)o2)nc(C)c1F` [Compound 42, 2-(5′-fluoro-4,6′-dimethyl-[3,4′-bipyridin]-2′-yl)-5-(5-fluoropyridin-2-yl)-1,3,4-oxadiazole], the IC50 amounted to 375 nM. Moreover, the remaining activity at 30 µM (% Glu max at 30 μM) came to 2%.

As for `Cc1csc(-c2nc(-c3cc(-c4cnc(C)s4)c(F)c(C)n3)no2)n1` [Compound 18, 3-(5-fluoro-6-methyl-4-(2-methylthiazol-5-yl)pyridin-2-yl)-5-(4-methylthiazol-2-yl)-1,2,4-oxadiazole], the IC50 is 1130 nM. Besides, the remaining activity at 30 µM (% Glu max at 30 μM) was 13%.

`Cc1cc(CC2CCOC2)cc(-c2noc(-c3ccc(F)cn3)n2)n1` (stereo not drawn) [Compound 86, 5-(5-fluoropyridin-2-yl)-3-(6-methyl-4-((tetrahydrofuran-3-yl)methyl)pyridin-2-yl)-1,2,4-oxadiazole]: the IC50 is 766 nM. Besides, the remaining activity at 30 µM (% Glu max at 30 μM) worked out at 1%.

Consider `Cc1csc(-c2nnc(-c3cc(-c4cncc(F)c4)c(F)c(C)n3)o2)n1` [Compound 83, 2-(5,5′-difluoro-6′-methyl-[3,4′-bipyridin]-2′-yl)-5-(4-methylthiazol-2-yl)-1,3,4-oxadiazole], for which the remaining activity at 30 µM was found to be 2% and the IC50 is 600 nM.

With `COc1c(-c2cncc(F)c2)cc(-c2nc(-c3ccc(F)cn3)no2)nc1C` [Compound 14, 5-(5-fluoro-5′-methoxy-6′-methyl-[3,4′-bipyridin]-2′-yl)-3-(5-fluoropyridin-2-yl)-1,2,4-oxadiazole], the IC50 was 339 nM. Moreover, where the note is “% Glu max at 30 μM”, the remaining activity at 30 µM turned out to be 2%.

As to `Cc1nc(-c2noc(-c3cscn3)n2)cc(-c2cncc(F)c2)c1F` [Compound 52, 3-(5,5′-difluoro-6′-methyl-[3,4′-bipyridin]-2′-yl)-5-(thiazol-4-yl)-1,2,4-oxadiazole], the half-maximal inhibitory concentration (IC50) is above 10000 nM. For the same molecule, the remaining activity at 30 µM (% Glu max at 30 μM) was 18%.

Regarding `Cc1ccncc1-c1cc(-c2noc(-c3ccc(F)cn3)n2)nc(C(F)F)c1` [Compound 60, 3-(6′-(difluoromethyl)-4-methyl-[3,4′-bipyridin]-2′-yl)-5-(5-fluoropyridin-2-yl)-1,2,4-oxadiazole], the IC50 was 187 nM. Further, the remaining activity at 30 µM (% Glu max at 30 μM) amounted to 4%.

Turning to `Cc1ccncc1-c1cc(-c2noc(-c3cccc(F)c3)n2)nc(C)c1F` [Compound 20, 3-(5′-fluoro-4,6′-dimethyl-[3,4′-bipyridin]-2′-yl)-5-(3-fluorophenyl)-1,2,4-oxadiazole], the IC50 is 49 nM. The remaining activity at 30 µM (% Glu max at 30 μM) amounted to 2%.

Regarding `Cc1cccc(-c2nnc(-c3cc(-c4cncc(F)c4)c(F)c(C)n3)o2)n1` [Compound 58, 2-(5,5′-difluoro-6′-methyl-[3,4′-bipyridin]-2′-yl)-5-(6-methylpyridin-2-yl)-1,3,4-oxadiazole], the remaining activity at 30 µM came to 31% and the IC50 is above 10000 nM.

Take `Fc1ccc(-c2noc(-c3cc(-c4cncc(F)c4)cc(C(F)F)n3)n2)nc1` [Compound 78, 5-(6′-(difluoromethyl)-5-fluoro-[3,4′-bipyridin]-2′-yl)-3-(5-fluoropyridin-2-yl)-1,2,4-oxadiazole]: the IC50 amounted to 149 nM. Also, the remaining activity at 30 µM (% Glu max at 30 μM) was 2%.

As to `COc1c(-c2cnn(C(F)F)c2)cc(-c2noc(-c3ccc(F)cn3)n2)nc1C` [Compound 12, 3-(4-(1-(difluoromethyl)-1H-pyrazol-4-yl)-5-methoxy-6-methylpyridin-2-yl)-5-(5-fluoropyridin-2-yl)-1,2,4-oxadiazole], the IC50 is 1110 nM. For the same molecule, the remaining activity at 30 µM (% Glu max at 30 μM) was determined as 2%.

For the molecule `Cc1nc(-c2noc(-c3ccc(F)cc3F)n2)cc(-c2cncc(F)c2)c1F` [Compound 49, 3-(5,5′-difluoro-6′-methyl-[3,4′-bipyridin]-2′-yl)-5-(2,4-difluorophenyl)-1,2,4-oxadiazole], the IC50 was found to be 624 nM. The remaining activity at 30 µM (% Glu max at 30 μM) came to 3%.

`COc1c(-c2cnccc2C)cc(-c2nc(-c3ccc(F)cn3)no2)nc1C` [Compound 13, 3-(5-fluoropyridin-2-yl)-5-(5′-methoxy-4,6′-dimethyl-[3,4′-bipyridin]-2′-yl)-1,2,4-oxadiazole]: the IC50 was 482 nM. In addition, the remaining activity at 30 µM (% Glu max at 30 μM) is 2%.
